Results reported in US9012395B2, “Treatment of extracellular matrix to reduce inflammation” (The Cleveland Clinic Foundation, priority 2011, dated 2015).

Assay: Solubility of HA

In the case of hyaluronan [HA], the “Concentration of HA solutions that can be prepared” value is reported as at least 20000 µg/mL.
